Source: article PMC6270194 (Molecules, 2013)
Marks after values point to notes of the source that are not given here.

Assays:
Tyrosinase = Tyrosinase inhibition assay (L-DOPA substrate); assay type: biochemical; conditions: 10 μM compounds dissolved in DMSO
Experimental: Tyrosinase inhibition was calculated based on previously described methods using L-DOPA as the substrate. Tyrosinase inhibition depended upon the amount of dopachrome produced in the reaction mixture. Absorption was measured at 490 nm to calculate the amount of dopachrome produced. The assay was performed in 96-well clear polystyrene plates using FLUOstar OPTIMA plate reader. The tyrosinase inhibitory effect of sample was measured using the following the Equation (1).

HIV-1 protease = molecular target: T1, HIV-1 protease (Human immunodeficiency virus type 1 group M subtype B, UniProt P04585); test: HIV-1 protease inhibition assay (fluorescent substrate); assay type: biochemical; conditions: 10 μM compounds dissolved in DMSO; for inhibition at 10 µM: read-out: % Enzyme Inhibition HIV-I protease
T1 construct: HIV-1 protease enzyme (Sigma Aldrich); purchased Sigma Aldrich
Experimental: HIV-1 protease inhibition was performed by using a previously described method. HIV protease fluorescent substrate and HIV-1 protease enzyme (Sigma Aldrich) were used to determine HIV inhibition capacity of sample. Three primary controls i.e., blank, sample and positive control were used. Reaction mixture of 200 µL comprised of five enzyme units (5U) of HIV-1 protease along with 0.5 pmol of enzyme substrate. After addition of both enzymes and substrates, test compounds were added in different concentrations. Reaction mixture was incubated at 37 °C which leads to generation of fluorescence signal by cleaving Tyr-Pro peptide bond of the substrate. Finally reaction mixture was heated for 5 minutes at 90 °C to stop the reaction. The mixture was centrifuged at 12,000 rpm for 3 min. and supernatant was used to measure the fluorescence signal. The enzyme inhibition was calculated using the Equation (1).

[1] = Ferric reducing ability of plasma (FRAP) assay; conditions: for FRAP antioxidant capacity: 10 μM compounds dissolved in DMSO, Trolox equivalence, mean ± SD
Source text: The FRAP assay uses antioxidants in a redox-linked colorimetric assay to reduce ferric tripyridyl triazine to ferrous form at low pH [20].
FRAP assay is based on ferric to ferrous ion reduction to test the electron donating capacity of antioxidants. The assay was modified by using the 96-well microplate reader with an injection port system. Briefly, the FRAP working reagent was made using acetate buffer, 2,4,6-Tris (2-pyridyl)-s-triazine solution and ferric chloride in the ratio 10:1:1. […] After 6 min reaction time, absorbance was measured at 593 nm. Trolox standards at different concentrations were used to calculate the antioxidant capacity as mmol Trolox equivalence per L.

[2] = Oxygen radical absorbance capacity (ORAC) assay; conditions: for ORAC antioxidant capacity: 1 μM compounds dissolved in DMSO, Trolox equivalence, mean ± SD
Experimental: ORAC assay is based on the free radical damage to a fluorescence probe measured by fluorescence intensity over the time. The fluorescein sodium salt was used as fluorescence probe and change in its intensity was estimated as the index of the degree of free radical damage. Assay was performed using method described elsewhere. Briefly, the standards and samples were prepared using 75 mM phosphate buffer (pH 7). As the peroxy radicals are generated from decomposition of 2,2'-azobis(2-amidino-propane) dihydrochloride (AAPH), the signal was quenched from fluorescein. However, in the presence of antioxidant samples the fluorescence signal can be stabilize which depends directly upon the antioxidant’s capacity to neutralize the free radical. Quadratic relation emerging from florescent area under the decaying curve was used to calculate antioxidant capacity as mmol Trolox equivalence per L.

[3] = tested on: angiotensin converting enzyme (ACE); test: Angiotensin converting enzyme (ACE) inhibition assay; assay type: biochemical; conditions: 10 μM compounds dissolved in DMSO
Experimental: ACE assay is based on ACE inhibitory activity of test samples. The enzyme activity was measured by production of hippuric acid from the substrate hippuryl-L-histidyl-L-leucine (HHL). ACE cleaves the substrate to expose a free N-terminus, which was fluorogenically labeled with o-phthaldialdehyde (OPA). The florescence signal was measured by using excitation of 350 nm and emission of 500 nm. ACE inhibition activity of samples was measured using the following equation: % inhibition = 100 − (Acontrol − Asample)/Acontrol × 100 (1) where A is the absorbance Equation (1).

[4] = DPPH· free radical scavenging assay; conditions: for IC50: DPPH· scavenging, 0.2 mM DPPH· in DMSO, absorbance 515 nm; for antiradical capacity lower than other series 3 analogues (fold): relative to other curcumin analogues in series 3
Experimental: DPPH^· assay is widely used to observe radical scavenging activity of various compounds and extracts. DPPH^· is stable N radical which is reduced to hydrazine during its reaction with hydrogen donors.
Initially, 0.2 mM DPPH^· solution was prepared using DMSO as the solvent. […] During reduction of DPPH^· solution by antiradical compound, absorption of DPPH^· was measured at 515 nm. The spectrophotometric data was acquired using BMG FLUOstar OPTIMA spectrophotometer (BMG Labtech, Durham, NC, USA) and the IC50 values were calculated.

[5] = tested on: human endothelial lung cells; test: Cytotoxicity analysis by LDH release assay; assay type: cell-based; conditions: 10 µM, 24 hours
Experimental: In the current study authors conducted a toxicology study to confirm safety of compounds and their dosage for potential animal or clinical studies. The study was conducted at 10 µM concentration using human endothelial lung cells. […] Literature reports on cytotoxic behavior of potent natural antioxidants are rare. Research in the field of free radicals mainly deals with screening of novel antioxidants and their mechanism of action.
Human lung cell line (ATCC® PCS-100-022™) was purchased from American Type Culture Collection (Cederlane, Burlington, ON, Canada). Cell lines were maintained and grown in DMEM complete growth media, supplemented with 10% fetal bovine serum (FBS), 100 units/mL penicillin and 100 µg/mL streptomycin (Cederlane) at 37 °C, in a humidified 5% CO2 incubator. Cell growth medium was changed every 48 hours and when cells reached 80% confluence, they were detached from 75 cm^2 tissue culture flask using 0.25% trypsin-EDTA treatment. The detached cells were collected in sterile tube in FBS free media. Collected cells were then counted using the Millipore Scepter 2.0 handheld automated cell counter. Further assay specific analysis was performed as described in section 2.10.
Cytotoxicity assay was performed using Promega Cytotox 96® non-radioactive colorimetric assay (Promega Corporation). The assay measures the lactate dehydrogenase (LDH) release upon cell lysis. The released LDH from cells was measured in an enzymatic assay based on conversion of tetrazolium salt to a red formazan product. Briefly, 5,000 human endothelial lung cells in 100 µL of serum-free culture medium were seeded in 96 well sterile plates. Cells were allowed to adhere to the plates for 24 h at 37 °C in a humidified, 5% CO2 incubator. After 24 h, the serum-free media was replaced by test compounds in 100 µL of serum-free culture medium. […] The test compounds at 10 µM concentration were allowed to interact with cells for 24 hours after which absorbance were recorded at 490 nm using BMG FLUOstar OPTIMA spectrophotometer (BMG Labtech, Durham, NC). […]

[6] = DPPH assay, relative to curcumin

Compound | % Enzyme Inhibition Tyrosinase (Tyrosinase) | inhibition at 10 µM (HIV-1 protease) [%] | FRAP antioxidant capacity [1] | ORAC antioxidant capacity [2] | % Enzyme Inhibition ACE [3] | IC50 [4] [µM] | DPPH· scavenging capacity weaker than curcumin (fold) [4, 6] | cytotoxicity ranking (LDH release), in words [5] | radical scavenging capacity higher than curcumin (fold) [4, 6] | antiradical capacity lower than other series 3 analogues (fold) ([4]; DPPH assay) | ORAC value, peroxyl radical scavenging capacity [2] [mM TE/L] | % Enzyme Inhibition HIV-I protease (HIV-1 protease) | FRAP value ([1]; 10 µM concentration) [mM TE/L]
O=C1/C(=C(O)/C=C/c2ccccc2)CCC/C1=C\c1ccccc1 [Compound 2a] | 46.1 ^i % | 48.2 | 1.13 ± 0.4 ^g mmole TE/L | 0.12 ± 0.01 ^g mmole TE/L | 19.69 ^g % | 2860 | – | – | – | – | – | – | –
COc1ccc(/C=C/C(O)=C2\CCC/C(=C\c3ccc(OC)cc3)C2=O)cc1 [Compound 2c] | 40.63 ^j % | 43.7 | 1.32 ± 0.001 ^f mmole TE/L | 0.11 ± 0.01 ^g mmole TE/L | 4.01 ^g % | 4070 | ~ 5 fold | – | – | – | – | – | –
COc1cc(/C=C/C(O)=C2\CCC/C(=C\c3ccc(O)c(OC)c3)C2=O)ccc1O [Compound 2d] | 56.84 ^h % | 37.3 | 5.35 ± 0.1 ^b mmole TE/L | 0.50 ± 0.02 ^ef mmole TE/L | 84.59 ^ab % | 720 | – | – | – | – | – | – | –
O=C1/C(=C(O)/C=C/c2ccc(Cl)cc2)CCC/C1=C\c1ccc(Cl)cc1 [Compound 2f] | 60.15 ^ef % | 9.9 | 1.28 ± 0.04 ^fg mmole TE/L | 0.49 ± 0.1 ^ef mmole TE/L | No ACE inhibition activity was detected | 710 | – | – | – | – | – | – | –
Cc1ccc(/C=C/C(O)=C2\CCC/C(=C\c3ccc(C)cc3)C2=O)cc1 [Compound 2g] | 59.44 ^fg % | 20.1 | 1.12 ± 0.02 ^g mmole TE/L | 0.84 ± 0.01 ^d mmole TE/L | 15.04 ^g % | 1360 | – | lowest cytotoxicity effects | – | – | – | – | –
O=C1/C(=C(O)/C=C/c2ccccc2)CC/C1=C\c1ccccc1 [Compound 3a] | 70.85 ^c % | 27 | 1.41 ± 0.1 ^f mmole TE/L | 1.12 ± 0.1 ^c mmole TE/L | 51.96 ^ef % | 70 | – | – | over 10 fold | – | – | – | –
O=C1/C(=C(O)/C=C/c2ccc(O)cc2)CC/C1=C\c1ccc(O)cc1 [Compound 3b] | – | 41.1 | 2.29 ± 0.1 ^e mmole TE/L | 0.49 ± 0.1 ^ef mmole TE/L | 90.55 ^ab % | 60 | – | – | over 10 fold | – | – | – | –
Cc1ccc(/C=C/C(O)=C2\CC/C(=C\c3ccc(C)cc3)C2=O)cc1 [Compound 3g] | 67.18 ^d % | 22.7 | 0.95 ± 0.02 ^hi mmole TE/L | 1.25 ± 0.04 ^bc mmole TE/L | 46.19 ^ef % | 510 | – | – | – | approximately 10 fold | – | – | –
O=C1/C(=C(O)/C=C/c2ccc([N+](=O)[O-])cc2)CC/C1=C\c1ccc([N+](=O)[O-])cc1 [Compound 3h] | 59.22 ^fg % | 44.8 | 1.05 ± 0.01 ^ghi mmole TE/L | 0.84 ± 0.1 ^d mmole TE/L | 88.01 ^ab % | 360 | – | – | – | approximately 10 fold | – | – | –
(1E,6E)-1,7-bis(4-hydroxy-3-methoxyphenyl)-1,6-heptadiene-3,5-dione [Curcumin, reference compound] | 12.61 ^k % | – | 5.01 ± 0.1 ^c mmole TE/L | 1.89 ± 0.2 ^a mmole TE/L | 76.86 ^bc % | 860 | – | – | – | – | 5.01 | – | –
(E)-2-(3,4-dimethoxybenzylidene)-5-((E)-3-(3,4-dimethoxyphenyl)acryloyl)cyclopentanone [Compound 3e] | – | – | 0.67 ± 0.02 ^j mmole TE/L | 0.69 ± 0.1 ^e mmole TE/L | 56.95 ^de % | 30 | – | – | over 10 fold | – | – | 44.5 ^cd % | –
(E)-2-(3,4-dimethoxybenzylidene)-6-((E)-3-(3,4-dimethoxyphenyl)acryloyl)cyclohexanone [Compound 2e] | – | – | 0.47 ± 0.1 ^k mmole TE/L | 0.60 ± 0.1^e mmole TE/L | 36.56 ^f % | 2570 | – | – | – | – | – | 61.6 ^a % | 0.47
(E)-2-(4-hydroxy-3-methoxybenzylidene)-5-((E)-3-(4-hydroxy-3-methoxyphenyl)acryloyl)-cyclopentanone [Compound 3d] | 79.99 ^b % | – | 6.70 ± 0.32 ^a mmole TE/L | 0.75 ± 0.05 ^d mmole TE/L | 93.89 ^a % | 70 | – | – | over 10 fold | – | – | 41.8 ^de % | –
(E)-2-(4-hydroxybenzylidene)-6-((E)-3-(4-hydroxyphenyl)acryloyl)cyclohexanone [Compound 2b] | – | – | 3.02 ± 0.02 ^d mmole TE/L | 0.43 ± 0.1 ^f mmole TE/L | 88.73 ^ab % | 2580 | – | – | – | – | – | 55.5 ^b % | –
